Assay results published in patent US20220323406A1, “METHODS AND COMPOSITIONS FOR DIFFERENTIATING STEM CELLS” (Massachusetts Institute of Technology, priority 2019, published 2022).

Tests used:
[1] = system: ENR+CD organoids (ISC to Paneth cell differentiation); assay: Primary screen: CCh-stimulated lysozyme secretion LYZ.S, 2.5-D 384-well ENR+CD organoid differentiation; format: cell-based, mouse; details: primary screen
From the text: (§1) High-throughput screening.

[2] = system: ENR+CD organoids (ISC to Paneth cell differentiation); assay: Primary screen: basal (non-stimulated) lysozyme secretion LYZ.NS, 2.5-D 384-well ENR+CD organoid differentiation; format: cell-based, mouse
From the text: as §1

ENR+CD organoids = assay: Primary screen: ATP (CellTiter-Glo 3D, CTG) cell number/viability, 2.5-D 384-well ENR+CD organoids; details: primary screen; for Z.CTG: standard z score;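 as to all read-outs here: compounds given at plating and again on day 3 over a 6-day differentiation from ENR+CV stem-cell-enriched precursors, ATP measured on day 6, plate median as control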
[3] = dose 0.08 uM, FC vs plate median
[4] = dose 0.40 uM, FC vs plate median
[5] = dose 2.00 uM, FC vs plate median
[6] = dose 10.00 uM, FC vs plate median
[7] = primary screen, dose 0.08 uM, standard z score
[8] = primary screen, dose 0.40 uM, standard z score
[9] = primary screen, dose 2.00 uM, standard z score
[10] = primary screen, dose 10.00 uM, standard z score
[11] = primary screen; dose 0.08 uM; FC vs plate median
[12] = primary screen; dose 0.40 uM; FC vs plate median
[13] = primary screen; dose 2.00 uM; FC vs plate median
[14] = primary screen; dose 10.00 uM; FC vs plate median
[15] = dose 0.08 uM, FC relative to plate median
[16] = dose 0.40 uM, FC relative to plate median
[17] = dose 2.00 uM, FC relative to plate median
[18] = dose 10.00 uM, FC relative to plate median

COc1ccc(CNCc2cccc3ccccc23)cc1.Cl [ML133 HCl]
Dose.FC.LYZ.S [1, 3]: 0.062 log2 fold change | Dose.FC.LYZ.S [1, 4]: −0.018 log2 fold change | Dose.FC.LYZ.S [1, 5]: 0.087 log2 fold change | Dose.FC.LYZ.S [1, 6]: −0.014 log2 fold change | Z.LYZ.NS [2, 7]: 0.261 | Z.LYZ.NS [2, 8]: −0.116 | Z.LYZ.NS [2, 9]: 0.633 | Z.LYZ.NS [2, 10]: −0.155 | Dose.FC.LYZ.NS [2, 11]: 0.030 log2 fold change | Dose.FC.LYZ.NS [2, 12]: −0.013 log2 fold change | Dose.FC.LYZ.NS [2, 13]: 0.073 log2 fold change | Dose.FC.LYZ.NS [2, 14]: −0.018 log2 fold change | Z.CTG (ENR+CD organoids; dose 0.08 uM): −0.023 | Z.CTG (ENR+CD organoids; dose 0.40 uM): −0.360 | Z.CTG (ENR+CD organoids; dose 2.00 uM): −0.591 | Z.CTG (ENR+CD organoids; dose 10.00 uM): −0.096 | Dose.FC.CTG (ENR+CD organoids; [3]): −0.009 log2 fold change | Dose.FC.CTG (ENR+CD organoids; [4]): −0.151 log2 fold change | Dose.FC.CTG (ENR+CD organoids; [5]): −0.247 log2 fold change | Dose.FC.CTG (ENR+CD organoids; [6]): −0.040 log2 fold change

CC#CCn1c(N2CCC[C@@H](N)C2)nc2c1c(=O)n(Cc1nc(C)c3ccccc3n1)c(=O)n2C [Linagliptin]
Dose.FC.LYZ.S (log2 fold change) ([1]; dose 0.08 uM): 0.140 | Dose.FC.LYZ.S (log2 fold change) ([1]; dose 0.40 uM): 0.047 | Dose.FC.LYZ.S (log2 fold change) ([1]; dose 2.00 uM): −0.032 | Dose.FC.LYZ.S (log2 fold change) ([1]; dose 10.00 uM): 0.050 | Dose.FC.LYZ.NS (log2 fold change) ([2]; primary screen, dose 0.08 uM): 0.208 | Z.LYZ.NS (standard z score) ([2]; primary screen, dose 0.08 uM): 1.809 | Dose.FC.LYZ.NS (log2 fold change) ([2]; primary screen, dose 0.40 uM): 0.055 | Z.LYZ.NS (standard z score) ([2]; primary screen, dose 0.40 uM): 0.478 | Dose.FC.LYZ.NS (log2 fold change) ([2]; primary screen, dose 2.00 uM): 0.021 | Z.LYZ.NS (standard z score) ([2]; primary screen, dose 2.00 uM): 0.182 | Dose.FC.LYZ.NS (log2 fold change) ([2]; primary screen, dose 10.00 uM): 0.080 | Z.LYZ.NS (standard z score) ([2]; primary screen, dose 10.00 uM): 0.695 | Dose.FC.CTG (log2 fold change) (ENR+CD organoids; dose 0.08 uM): 0.163 | Dose.FC.CTG (log2 fold change) (ENR+CD organoids; dose 0.40 uM): 0.209 | Dose.FC.CTG (log2 fold change) (ENR+CD organoids; dose 2.00 uM): 0.023 | Dose.FC.CTG (log2 fold change) (ENR+CD organoids; dose 10.00 uM): −0.011

C=C1C(=O)O[C@@H]2/C=C(\C)CC/C=C(\C)CC[C@@H]12 [Costunolide]
Dose.FC.LYZ.S ([1]; dose 0.08 uM): 0.171 log2 fold change | Dose.FC.LYZ.S ([1]; dose 0.40 uM): 0.103 log2 fold change | Dose.FC.LYZ.S ([1]; dose 2.00 uM): −0.006 log2 fold change | Dose.FC.LYZ.S ([1]; dose 10.00 uM): 0.006 log2 fold change | Dose.FC.LYZ.NS ([2]; primary screen, dose 0.08 uM): 0.131 log2 fold change | Dose.FC.LYZ.NS ([2]; primary screen, dose 0.40 uM): 0.067 log2 fold change | Dose.FC.LYZ.NS ([2]; primary screen, dose 2.00 uM): −0.018 log2 fold change | Dose.FC.LYZ.NS ([2]; primary screen, dose 10.00 uM): 0.047 log2 fold change | Z.LYZ.NS ([2]; primary screen, standard z score, dose 0.08 uM): 1.143 | Z.LYZ.NS ([2]; primary screen, standard z score, dose 0.40 uM): 0.585 | Z.LYZ.NS ([2]; primary screen, standard z score, dose 2.00 uM): −0.157 | Z.LYZ.NS ([2]; primary screen, standard z score, dose 10.00 uM): 0.408 | Dose.FC.CTG (ENR+CD organoids; dose 0.08 uM): −0.029 log2 fold change | Dose.FC.CTG (ENR+CD organoids; dose 0.40 uM): 0.121 log2 fold change | Dose.FC.CTG (ENR+CD organoids; dose 2.00 uM): 0.050 log2 fold change | Dose.FC.CTG (ENR+CD organoids; dose 10.00 uM): 0.008 log2 fold change

COc1cc(Br)c(Nc2nc(-c3c(C)nc4ncccn34)cs2)c(Br)c1 [PTC-209]
Dose.FC.LYZ.S [1, 15]: 0.007 log2 fold change | Dose.FC.LYZ.S [1, 16]: 0.045 log2 fold change | Dose.FC.LYZ.S [1, 17]: −0.289 log2 fold change | Dose.FC.LYZ.S [1, 18]: −0.300 log2 fold change | Dose.FC.LYZ.NS ([2]; primary screen, dose 0.08 uM, FC relative to plate median): 0.034 log2 fold change | Z.LYZ.NS [2, 7]: 0.294 | Dose.FC.LYZ.NS ([2]; primary screen, dose 0.40 uM, FC relative to plate median): −0.058 log2 fold change | Z.LYZ.NS [2, 8]: −0.509 | Dose.FC.LYZ.NS ([2]; primary screen, dose 2.00 uM, FC relative to plate median): −0.201 log2 fold change | Z.LYZ.NS [2, 9]: −1.753 | Dose.FC.LYZ.NS ([2]; primary screen, dose 10.00 uM, FC relative to plate median): −0.227 log2 fold change | Z.LYZ.NS [2, 10]: −1.975 | Dose.FC.CTG (ENR+CD organoids; [15]): −0.108 log2 fold change | Z.CTG (ENR+CD organoids; dose 0.08 uM): −0.259 | Dose.FC.CTG (ENR+CD organoids; [16]): −0.207 log2 fold change | Z.CTG (ENR+CD organoids; dose 0.40 uM): −0.495 | Dose.FC.CTG (ENR+CD organoids; [17]): −1.422 log2 fold change | Z.CTG (ENR+CD organoids; dose 2.00 uM): −3.397 | Dose.FC.CTG (ENR+CD organoids; [18]): −1.553 log2 fold change | Z.CTG (ENR+CD organoids; dose 10.00 uM): −3.708

COC(=O)C1=C(C#N)NC(C)=C(C(=O)OC(C)C)C1c1cccc([N+](=O)[O-])c1 (stereo not drawn) [Nilvadipine]
Dose.FC.LYZ.S [1, 3]: 0.088 log2 fold change | Dose.FC.LYZ.S [1, 4]: 0.013 log2 fold change | Dose.FC.LYZ.S [1, 5]: 0.071 log2 fold change | Dose.FC.LYZ.S [1, 6]: −0.008 log2 fold change | Z.LYZ.NS [2, 7]: 0.857 | Z.LYZ.NS [2, 8]: 0.034 | Z.LYZ.NS [2, 9]: 0.500 | Z.LYZ.NS [2, 10]: 0.082 | Dose.FC.LYZ.NS [2, 11]: 0.098 log2 fold change | Dose.FC.LYZ.NS [2, 12]: 0.004 log2 fold change | Dose.FC.LYZ.NS [2, 13]: 0.057 log2 fold change | Dose.FC.LYZ.NS [2, 14]: 0.009 log2 fold change | Dose.FC.CTG (ENR+CD organoids; [3]): 0.206 log2 fold change | Dose.FC.CTG (ENR+CD organoids; [4]): 0.135 log2 fold change | Dose.FC.CTG (ENR+CD organoids; [5]): 0.212 log2 fold change | Dose.FC.CTG (ENR+CD organoids; [6]): 0.192 log2 fold change

COc1cc(OC2CCN(C)CC2)ccc1Nc1ncc2c(n1)n(C1CCCC1)c(=O)n2C [AZ 3146]
Dose.FC.LYZ.S ([1]; dose 0.08 uM): 0.049 log2 fold change | Dose.FC.LYZ.S ([1]; dose 0.40 uM): −0.067 log2 fold change | Dose.FC.LYZ.S ([1]; dose 2.00 uM): −0.130 log2 fold change | Dose.FC.LYZ.S ([1]; dose 10.00 uM): −0.422 log2 fold change | Dose.FC.LYZ.NS ([2]; primary screen, dose 0.08 uM): 0.073 log2 fold change | Z.LYZ.NS (standard z score) ([2]; primary screen, dose 0.08 uM): 0.639 | Dose.FC.LYZ.NS ([2]; primary screen, dose 0.40 uM): −0.038 log2 fold change | Z.LYZ.NS (standard z score) ([2]; primary screen, dose 0.40 uM): −0.327 | Dose.FC.LYZ.NS ([2]; primary screen, dose 2.00 uM): −0.079 log2 fold change | Z.LYZ.NS (standard z score) ([2]; primary screen, dose 2.00 uM): −0.687 | Dose.FC.LYZ.NS ([2]; primary screen, dose 10.00 uM): −0.281 log2 fold change | Z.LYZ.NS (standard z score) ([2]; primary screen, dose 10.00 uM): −2.447 | Dose.FC.CTG (ENR+CD organoids; dose 0.08 uM): −0.130 log2 fold change | Z.CTG (standard z score) (ENR+CD organoids; dose 0.08 uM): −0.310 | Dose.FC.CTG (ENR+CD organoids; dose 0.40 uM): −0.262 log2 fold change | Z.CTG (standard z score) (ENR+CD organoids; dose 0.40 uM): −0.626 | Dose.FC.CTG (ENR+CD organoids; dose 2.00 uM): −0.369 log2 fold change | Z.CTG (standard z score) (ENR+CD organoids; dose 2.00 uM): −0.881 | Dose.FC.CTG (ENR+CD organoids; dose 10.00 uM): −1.168 log2 fold change | Z.CTG (standard z score) (ENR+CD organoids; dose 10.00 uM): −2.789
